Reference: the supplement of paper PMC6045584
± gives the standard deviation of the averaged measurements.

Experiments:
17-AAG = compound: C=CCNC1=C2C[C@@H](C)C[C@H](OC)[C@H](O)[C@@H](C)/C=C(\C)[C@H](OC(N)=O)[C@@H](OC)/C=C\C=C(/C)C(=O)NC(=CC1=O)C2=O [17-AAG]; assay: surviving fraction relative to DMSO-only wells; higher = less growth inhibition; conditions: exposure time: 5 days
How it was run: (§1)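 Viability was determined by CellTiter-Glo luminescence, expressed as surviving fraction normalised to the median of DMSO-only wells. The cells were log-phase tumour cell lines seeded at 250–500 per well in 384-well plates and, after 24 hours, exposed continuously for five days to inhibitors at 0.5, 1, 5, 10, 50, 100, 500 and 1000 nM. Three screens per line were run, keeping only lines with replicate Pearson r >0.7 and median Z' >0.3.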

DECITABINE = compound: Nc1ncn([C@H]2C[C@H](O)[C@@H](CO)O2)c(=O)n1 [DECITABINE]; assay: as above; conditions: exposure time: 5 days
How it was run: as §1

| Test System | surviving fraction (17-AAG; 0.5 nM) | surviving fraction (17-AAG; 1 nM) | surviving fraction (17-AAG; 5 nM) | surviving fraction (17-AAG; 10 nM) | surviving fraction (17-AAG; 50 nM) | surviving fraction (17-AAG; 100 nM) | surviving fraction (17-AAG; 500 nM) | surviving fraction (17-AAG; 1000 nM) | surviving fraction (DECITABINE; 0.5 nM) | surviving fraction (DECITABINE; 1 nM) | surviving fraction (DECITABINE; 5 nM) | surviving fraction (DECITABINE; 10 nM) | surviving fraction (DECITABINE; 50 nM) | surviving fraction (DECITABINE; 100 nM) | surviving fraction (DECITABINE; 500 nM) | surviving fraction (DECITABINE; 1000 nM) |
| --- | --- | --- | --- | --- | --- | --- | --- | --- | --- | --- | --- | --- | --- | --- | --- | --- |
| MDAMB436 BREAST | 0.801 ± 0.045 | 0.797 ± 0.073 | 0.749 ± 0.077 | 0.581 ± 0.039 | 0.318 ± 0.027 | 0.344 ± 0.033 | 0.328 ± 0.042 | 0.352 ± 0.015 | 1.11 ± 0.084 | 1.06 ± 0.079 | 1 ± 0.12 | 0.949 ± 0.09 | 0.927 ± 0.11 | 0.823 ± 0.064 | 0.796 ± 0.048 | 0.685 ± 0.032 |
| MDAMB453 BREAST | 1.01 ± 0.017 | 1.04 ± 0.03 | 0.842 ± 0.057 | 0.356 ± 0.014 | 0.052 ± 0.027 | 0.048 ± 0.012 | 0.0367 ± 0.0049 | 0.042 ± 0.018 | 1.04 ± 0.053 | 1.04 ± 0.032 | 1.05 ± 0.093 | 1.07 ± 0.062 | 1.05 ± 0.061 | 1.02 ± 0.059 | 0.88 ± 0.015 | 0.757 ± 0.053 |
| MDAMB468 BREAST | 0.901 ± 0.05 | 0.826 ± 0.03 | 0.95 ± 0.039 | 0.931 ± 0.04 | 0.92 ± 0.082 | 0.31 ± 0.022 | 0.219 ± 0.029 | 0.218 ± 0.021 | 1.09 ± 0.083 | 1.08 ± 0.062 | 1.08 ± 0.098 | 1.03 ± 0.068 | 0.836 ± 0.04 | 0.658 ± 0.046 | 0.391 ± 0.02 | 0.341 ± 0.043 |
| MFM223 BREAST | 0.757 ± 0.067 | 0.749 ± 0.036 | 0.503 ± 0.049 | 0.33 ± 0.022 | 0.119 ± 0.0098 | 0.0942 ± 0.006 | 0.08 ± 0.0044 | 0.095 ± 0.006 | 1.5 ± 0.59 | 1.51 ± 0.5 | 1.45 ± 0.48 | 1.47 ± 0.53 | 1.05 ± 0.061 | 1.05 ± 0.1 | 0.993 ± 0.095 | 0.799 ± 0.02 |
| MG63 BONE | 0.886 ± 0.028 | 0.88 ± 0.012 | 0.976 ± 0.028 | 0.919 ± 0.017 | 0.957 ± 0.014 | 0.733 ± 0.021 | 0.258 ± 0.0081 | 0.173 ± 0.0036 | 0.968 ± 0.02 | 0.9493 ± 0.0021 | 0.704 ± 0.009 | 0.641 ± 0.0093 | 0.432 ± 0.017 | 0.356 ± 0.008 | 0.302 ± 0.016 | 0.291 ± 0.011 |
| MHM BONE | 0.973 ± 0.016 | 0.966 ± 0.026 | 0.987 ± 0.043 | 1.019 ± 0.0027 | 1.04 ± 0.02 | 0.912 ± 0.048 | 0.262 ± 0.023 | 0.184 ± 0.0051 | 1 ± 0.029 | 1 ± 0.07 | 1.02 ± 0.04 | 1.02 ± 0.062 | 1.05 ± 0.044 | 1.02 ± 0.023 | 1.08 ± 0.042 | 1.04 ± 0.038 |
| NCIH441 LUNG | 0.906 ± 0.13 | 1.02 ± 0.04 | 0.982 ± 0.046 | 0.993 ± 0.074 | 0.609 ± 0.069 | 0.416 ± 0.033 | 0.3 ± 0.025 | 0.308 ± 0.018 | 1.11 ± 0.025 | 1.11 ± 0.058 | 1.03 ± 0.074 | 0.935 ± 0.039 | 0.71 ± 0.057 | 0.591 ± 0.12 | 0.494 ± 0.047 | 0.405 ± 0.056 |
| NOS1 BONE | 0.804 ± 0.1 | 0.831 ± 0.081 | 0.759 ± 0.069 | 0.651 ± 0.063 | 0.379 ± 0.023 | 0.215 ± 0.027 | 0.0853 ± 0.0021 | 0.0827 ± 0.008 | 1.07 ± 0.099 | 0.872 ± 0.046 | 1.28 ± 0.055 | 0.989 ± 0.08 | 1.09 ± 0.043 | 0.992 ± 0.074 | 0.977 ± 0.22 | 0.816 ± 0.031 |
| NY BONE | 0.9133 ± 0.0047 | 0.924 ± 0.024 | 0.975 ± 0.0089 | 0.771 ± 0.054 | 0.0967 ± 0.0049 | 0.11 ± 0.0063 | 0.068 ± 0.0046 | 0.0527 ± 0.0045 | 0.9793 ± 0.0075 | 0.955 ± 0.016 | 1 ± 0.028 | 0.939 ± 0.018 | 0.921 ± 0.021 | 0.843 ± 0.054 | 0.649 ± 0.036 | 0.479 ± 0.042 |
| OS25HAL BONE | 0.9 ± 0.024 | 0.897 ± 0.041 | 0.909 ± 0.05 | 0.894 ± 0.05 | 0.948 ± 0.015 | 0.762 ± 0.13 | 0.146 ± 0.0098 | 0.141 ± 0.0098 | 1.01 ± 0.024 | 0.9963 ± 0.0074 | 1.08 ± 0.033 | 1.07 ± 0.011 | 1.19 ± 0.034 | 1.22 ± 0.034 | 1.047 ± 0.01 | 0.921 ± 0.055 |
| OSHN BONE | 0.9227 ± 0.006 | 0.923 ± 0.011 | 0.943 ± 0.013 | 0.937 ± 0.018 | 0.921 ± 0.018 | 0.232 ± 0.071 | 0.123 ± 0.0085 | 0.108 ± 0.0066 | 1.08 ± 0.015 | 1.06 ± 0.028 | 1.11 ± 0.024 | 1.07 ± 0.032 | 1.17 ± 0.03 | 1.17 ± 0.017 | 1.22 ± 0.022 | 1.112 ± 0.0035 |
| PCI30 HEADNECK | 0.915 ± 0.067 | 0.972 ± 0.059 | 1.01 ± 0.12 | 1.09 ± 0.029 | 0.302 ± 0.031 | 0.134 ± 0.019 | 0.0433 ± 0.0093 | 0.0393 ± 0.0015 | 1.04 ± 0.03 | 1.03 ± 0.052 | 0.987 ± 0.053 | 1.06 ± 0.034 | 0.963 ± 0.065 | 0.96 ± 0.079 | 0.843 ± 0.056 | 1.08 ± 0.075 |
| RDES SOFT TISSUE | 0.776 ± 0.22 | 0.784 ± 0.055 | 0.674 ± 0.081 | 0.692 ± 0.18 | 0.745 ± 0.11 | 0.992 ± 0.26 | 0.335 ± 0.042 | 0.16 ± 0.0035 | 1.24 ± 0.016 | 1.14 ± 0.033 | 1.18 ± 0.15 | 0.972 ± 0.05 | 1.13 ± 0.13 | 1.29 ± 0.16 | 1.11 ± 0.16 | 1.41 ± 0.28 |
| S68 BREAST | 0.8 ± 0.19 | 0.706 ± 0.12 | 0.126 ± 0.0072 | 0.0657 ± 0.0075 | 0.0677 ± 0.0091 | 0.064 ± 0.0044 | 0.057 ± 0.0079 | 0.0607 ± 0.0047 | 0.828 ± 0.28 | 0.903 ± 0.17 | 1.15 ± 0.28 | 1.13 ± 0.24 | 0.697 ± 0.21 | 0.926 ± 0.2 | 0.541 ± 0.13 | 0.445 ± 0.013 |
| SAOS2 BONE | 0.829 ± 0.046 | 0.775 ± 0.01 | 0.859 ± 0.099 | 0.77 ± 0.073 | 0.215 ± 0.031 | 0.0823 ± 0.004 | 0.069 ± 0.0087 | 0.0783 ± 0.0058 | 1.09 ± 0.027 | 1.11 ± 0.037 | 1.1 ± 0.027 | 1.02 ± 0.042 | 1.01 ± 0.051 | 0.88 ± 0.07 | 0.742 ± 0.057 | 0.581 ± 0.12 |
| SCC003 HEADNECK | 0.839 ± 0.058 | 0.89 ± 0.024 | 0.882 ± 0.04 | 0.789 ± 0.14 | 1.01 ± 0.074 | 0.396 ± 0.012 | 0.195 ± 0.017 | 0.0693 ± 0.0095 | 1.03 ± 0.038 | 1.03 ± 0.032 | 1.06 ± 0.067 | 1.03 ± 0.055 | 0.922 ± 0.047 | 0.788 ± 0.032 | 0.718 ± 0.032 | 0.635 ± 0.065 |
| SCC36 HEADNECK | 0.696 ± 0.065 | 0.767 ± 0.036 | 0.772 ± 0.089 | 0.744 ± 0.093 | 0.518 ± 0.059 | 0.257 ± 0.012 | 0.039 ± 0.0027 | 0.038 ± 0.0044 | 1.01 ± 0.05 | 1.01 ± 0.054 | 1.05 ± 0.15 | 1.05 ± 0.09 | 1.04 ± 0.089 | 0.934 ± 0.067 | 0.709 ± 0.054 | 0.648 ± 0.074 |
| SCC47 HEADNECK | 0.908 ± 0.024 | 0.925 ± 0.028 | 0.973 ± 0.014 | 0.939 ± 0.028 | 0.964 ± 0.053 | 0.255 ± 0.032 | 0.095 ± 0.002 | 0.067 ± 0.0044 | 1.07 ± 0.084 | 1.08 ± 0.13 | 1.08 ± 0.012 | 1.09 ± 0.067 | 1.03 ± 0.058 | 1.03 ± 0.03 | 0.973 ± 0.028 | 0.863 ± 0.1 |
| SCC90 HEADNECK | 0.866 ± 0.0092 | 0.923 ± 0.12 | 1 ± 0.11 | 0.862 ± 0.079 | 0.793 ± 0.039 | 0.423 ± 0.064 | 0.206 ± 0.042 | 0.0677 ± 0.013 | 0.985 ± 0.073 | 0.995 ± 0.065 | 1.11 ± 0.075 | 1.03 ± 0.072 | 1.13 ± 0.074 | 1.11 ± 0.018 | 1.3 ± 0.25 | 1.05 ± 0.17 |
